According to US11896713B2, “Strategies to enhance lung cancer treatment” (Rutgers, The State University of New Jersey, priority 2020, dated 2024):
Entries after “also recorded” stand apart in the source; their conditions may differ. Residues, ends and D or L forms follow the SMILES beside them.

Key:
human lung cancer cells = assay: Orthotopic lung cancer model treated with liposomal cisplatin or carboplatin; assay type: in vivo, mice; conditions: intravenous, 2.5 mg/kg
Experimental: Orthotopic lung cancer mouse model was created by intratracheal instillation of human lung cancer cells. The progression of tumor growth was monitored using bioluminescent and magnetic resonance (MRI) imaging. Luciferase transfected cancer cells were visualized in live anesthetized animals using in-vivo bioluminescence IVIS system (Xenogen, Alameda, CA). Luciferin (150 mg/kg) was intraperitoneally administered 10-15 minutes before imaging. All imaging procedures were performed at special imaging facilities of the Rutgers University Molecular Imaging Center as previously described. Mice were anesthetized with isoflurane (4% for induction of anesthesia and 1-2% for maintenance) using XGI-8 Gas Anesthesia System (Xenogen, Alameda, CA) for all imaging procedures. MRI was performed using a 1 T M2™ whole body scanner (Aspect Imaging, Shoham, Israel). Images (repetition time 2607 ms, echo time 44 ms) were recorded in Fast Spin Echo sequence. At a spatial resolution of 312 μm, the tumors were coronal imaged in a single section through the mouse body using an image matrix of 256×256, a field of view of 80 mm^2, and 4 excitation. Magnetic resonance signal and tumor volume were calculated using VivoQuant 1.21 software (Invicro, Boston, MA).
In order to deliver liposome-based system by inhalation, a Collison nebulizer (BGI, Inc., Waltham, MA) was connected to four-port nose-only exposure chambers (the chamber was made by CH Technologies, Westwood, NJ according to our design). […] The installation was designed and regime of inhalation was selected to keep the inhalation dosage controllable and uniform from animal to animal with a minimal damage to the nanoparticles. The solution of NLC was aerosolized at a flow rate of 2 L/min and then diluted by an additional 2 L/min of air. […] It was also shown that the aerosol distribution between the four ports of the chamber was homogenous. The dose of Cis and Carb in all drug-containing formulations was 2.5 mg/kg for the single administration.

[1] = tested on: LHRH-positive lung cancer cells; assay: Cytotoxicity (MTT) and competitive inhibition by LHRH peptide; assay type: cell-based
Experimental: (§1) Cytotoxicity, Apoptosis Induction and Immune Response. The toxicities of the developed formulations were compared with a commercially used EGFR inhibitor gefitinib in three types of human lung cancer cells with different resistance to the drug. […] Cytotoxicity and apoptosis induction were analyzed by a modified 3-(4,5-Dimethylthiazol-2-yl)-2,5-diphenyltetrazolium bromide (MTT) assay and cell death detection ELISA Plus kit (Roche, Nutley, NJ), respectively. The cells were seeded on a 96 well plate at 10,000 cells per well with 100 μl of growth media in each well and placed in the incubator for 24 hours. After 24 hours, the media was removed and the cells were treated with varying concentrations of above indicated substances. The concentrations of tested substances were prepared using a serial dilution (1:2) to make 12 different working solutions for the cytotoxicity measurement.

A549 cells = assay: Cytotoxicity (MTT); assay type: cell-based, human; conditions: 72 h, 1 μM
[2] = tested on: NCI-H1781, A549 and NCI-H3255 NSCLC cell lines; assay: Apoptosis induction (cell death detection ELISA); assay type: cell-based, human; conditions: 72 h; 1 μM gefitinib or 0.3 ng/ml nanocarrier
Experimental: as §1
The control cells were incubated with fresh media. Previously validated in our laboratory MTT and apoptosis induction measurement protocols were used.

NCI-H1781 cells = assay: Cytotoxicity (MTT); assay type: cell-based, human; conditions: 72 h, 1 μM
Experimental: as §1

NCI-H3255 cells = assay: Cytotoxicity (MTT); assay type: cell-based, human; conditions: 72 h, 1 μM
Experimental: as §1

A549 lung cancer cells = assay: Orthotopic lung cancer model, tumor volume; assay type: in vivo, mice; conditions: intravenous, TAX 2.5 mg/kg
Experimental: In Vivo Lung Cancer Model, Imaging and Treatment. All animal experiments were carried out according to the protocol approved by Institutional Animal Care and Use Committee (IACUC). Nude mice were purchased from the approved commercial vendor (Taconic, Germantown, NY). All aspects of the program for procurement, conditioning/quarantine, housing management, veterinary care and disposal of carcasses followed the guidelines set forth in the NIH Guide for the Care and Use of Laboratory Animals. Animals were housed in the […]—accredited animal facility with free access to food and water. Veterinary care was supplied by Rutgers University Lab Animal Services. Orthotopic lung cancer mouse model was created by intratracheal instillation of A549 lung cancer cells as previously described. The progression of tumor growth was monitored using bioluminescent and magnetic resonance (MRI) imaging. Luciferase transfected cancer cells were visualized in live anesthetized animals using in-vivo bioluminescence IVIS system (Xenogen, Alameda, CA). Luciferin (150 mg/kg) was intraperitoneally administered 10-15 minutes before imaging. […] Images (repetition time 2607 ms, echo time 44 ms) were recorded in Fast Spin Echo sequence. […] Magnetic resonance signal and tumor volume were calculated using VivoQuant 1.21 software (Invicro, Boston, MA). […]

## N.N.O=C([O-])C1(C(=O)[O-])CCC1.[Pt+2] [Carb, carboplatin]
Human lung cancer cells
  antitumor effect: slightly slowed the tumor progression; also recorded: somewhat higher antitumor activity

## CCNC(=O)[C@@H]1CCCN1C(=O)[C@H](CCCNC(=N)N)NC(=O)[C@H](CC(C)C)NC(=O)[C@@H](CCCCNC(=O)[C@H](N)CS)NC(=O)[C@H](Cc1ccc(O)cc1)NC(=O)[C@H](CO)NC(=O)[C@H](Cc1c[nH]c2ccccc12)NC(=O)[C@H](Cc1c[nH]cn1)NC(=O)[C@@H](N)CCC(N)=O [LHRH peptide, Gln-His-Trp-Ser-Tyr-DLys(D-Cys)-Leu-Arg-Pro] (HELM PEPTIDE1{Q.H.W.S.Y.[dK].L.R.P.[CCN[*:1]]}|PEPTIDE2{[dC]}$PEPTIDE1,PEPTIDE2,6:R3-1:R2$$$V2.0)
[1]
  cytotoxicity: did not demonstrate any toxicity
[1]; cells incubated with different concentrations of LHRH peptide
  effect of LHRH receptor ligand on cytotoxicity of LHRH-NLC-TAX: limited cytotoxicity of LHRH-NLC-TAX in a concentration-dependent manner

## COc1cc2ncnc(Nc3ccc(F)c(Cl)c3)c2cc1OCCCN1CCOCC1 [gefitinib]
A549 cells
  sensitivity to gefitinib: moderate sensitivity to gefitinib
[2]
  apoptosis induction: correlated with its cytotoxicity
NCI-H1781 cells
  sensitivity to gefitinib: most resistant to gefitinib
NCI-H3255 cells
  sensitivity to gefitinib: the most sensitive to gefitinib

## N.N.[Cl][Pt][Cl] [Cis, cisplatin]
Human lung cancer cells
  antitumor effect: slightly slowed the tumor progression

## CC(=O)O[C@H]1C(=O)[C@@]2(C)[C@H]([C@H](OC(=O)c3ccccc3)[C@]3(O)C[C@H](OC(=O)[C@H](O)[C@@H](NC(=O)c4ccccc4)c4ccccc4)C(C)=C1C3(C)C)[C@]1(OC(C)=O)CO[C@@H]1C[C@@H]2O [TAX, Paclitaxel]
A549 lung cancer cells
  decrease of lung tumor volume at the end of the experiment: 1.1 times
